# Patent US11130679B2, “Biodegradable hollow nanoparticles and methods and apparatus for manufacturing the same” (University of Utah Research Foundation, priority 2018, dated 2021)
# Where a name gives a salt, the structure may show the parent alone.
# Assay: CCK-8 cytotoxicity in MCF-7 cells
# Assay type: cell-based
# Conditions: human, MCF-7 breast cancer epithelial cells, MCF-7, 6 μg mL^−1 of DOX
# Experimental: Cytotoxicity of the intact GSH-sensitive HMSiO2 NPs, TEOS HMSiO2 NPs, DOX-loaded GSH-sensitive HMSiO2 NPs, DOX-loaded TEOS HMSiO2 NPs, and free DOX was evaluated in MCF-7 breast cancer epithelial cells. Cells were cultured at 37° C. in 5% CO2 in DMEM with 10% FBS. Then, the cells were stained using Trypan Blue Stain 0.4% and read by Invitrogen Countess™ automated cell counter (Thermo Fisher Scientific Corporation, Grand Island, N.Y., USA). For the cytotoxicity evaluation, cells were seeded onto 96-well plates with the density of 4,000 cells/well and incubated to grow for 48 h. After 48 h, the cells were washed with PBS. Fresh media containing 10% FBS was then added (120 μL) with varying nanoparticle concentrations ranging from 0 to 1,000 μg mL^−1. Wells with media or Triton™ X-100 (without nanoparticles) were used as negative or positive controls, respectively. The cells were then incubated for another 24 and 48 h, the media was aspirated, and the cells were washed twice with PBS. Cell viability was determined using CCK-8 cytotoxicity assay kit according to an established protocol and absorbance was measured at 450 nm with SpectraMax® M2 microplate reader. Assays were performed at least in triplicate.
compound,measurement,setting,value
"COc1cccc2c1C(=O)c1c(O)c3c(c(O)c1C2=O)C[C@@](O)(C(=O)CO)C[C@@H]3O[C@H]1C[C@H](N)[C@H](O)[C@H](C)O1 [free DOX, Doxorubicin hydrochloride salt]","cytotoxicity at 24 h, 6 μg mL^−1","24 h incubation, read-out: Cell viability reduction (cells killed)",~64%
same,"cytotoxicity at 48 h, 6 μg mL^−1","48 h incubation, read-out: Cell viability reduction",~80%
